Results reported in ChEMBL document CHEMBL2073768, “Effects of xanthine derivatives on the influx and efflux of doxorubicin in P388 and DOX-resistant P388 leukemia cells” (Toxicol Lett, 2002).

Molecular target: ATP-dependent translocase ABCB1 (P-glycoprotein) (Mus musculus, UniProt P21447)
Experiment: TP_TRANSPORTER: inhibition of DOX efflux (DOX: 18? uM, XT-141: 100 uM) in P388/DOX cells
Format: functional, cell-based
Details: probe DOX (doxorubicin), read-out: Activity

Sequence of ATP-dependent translocase ABCB1 (P-glycoprotein) (P21447 whole entry): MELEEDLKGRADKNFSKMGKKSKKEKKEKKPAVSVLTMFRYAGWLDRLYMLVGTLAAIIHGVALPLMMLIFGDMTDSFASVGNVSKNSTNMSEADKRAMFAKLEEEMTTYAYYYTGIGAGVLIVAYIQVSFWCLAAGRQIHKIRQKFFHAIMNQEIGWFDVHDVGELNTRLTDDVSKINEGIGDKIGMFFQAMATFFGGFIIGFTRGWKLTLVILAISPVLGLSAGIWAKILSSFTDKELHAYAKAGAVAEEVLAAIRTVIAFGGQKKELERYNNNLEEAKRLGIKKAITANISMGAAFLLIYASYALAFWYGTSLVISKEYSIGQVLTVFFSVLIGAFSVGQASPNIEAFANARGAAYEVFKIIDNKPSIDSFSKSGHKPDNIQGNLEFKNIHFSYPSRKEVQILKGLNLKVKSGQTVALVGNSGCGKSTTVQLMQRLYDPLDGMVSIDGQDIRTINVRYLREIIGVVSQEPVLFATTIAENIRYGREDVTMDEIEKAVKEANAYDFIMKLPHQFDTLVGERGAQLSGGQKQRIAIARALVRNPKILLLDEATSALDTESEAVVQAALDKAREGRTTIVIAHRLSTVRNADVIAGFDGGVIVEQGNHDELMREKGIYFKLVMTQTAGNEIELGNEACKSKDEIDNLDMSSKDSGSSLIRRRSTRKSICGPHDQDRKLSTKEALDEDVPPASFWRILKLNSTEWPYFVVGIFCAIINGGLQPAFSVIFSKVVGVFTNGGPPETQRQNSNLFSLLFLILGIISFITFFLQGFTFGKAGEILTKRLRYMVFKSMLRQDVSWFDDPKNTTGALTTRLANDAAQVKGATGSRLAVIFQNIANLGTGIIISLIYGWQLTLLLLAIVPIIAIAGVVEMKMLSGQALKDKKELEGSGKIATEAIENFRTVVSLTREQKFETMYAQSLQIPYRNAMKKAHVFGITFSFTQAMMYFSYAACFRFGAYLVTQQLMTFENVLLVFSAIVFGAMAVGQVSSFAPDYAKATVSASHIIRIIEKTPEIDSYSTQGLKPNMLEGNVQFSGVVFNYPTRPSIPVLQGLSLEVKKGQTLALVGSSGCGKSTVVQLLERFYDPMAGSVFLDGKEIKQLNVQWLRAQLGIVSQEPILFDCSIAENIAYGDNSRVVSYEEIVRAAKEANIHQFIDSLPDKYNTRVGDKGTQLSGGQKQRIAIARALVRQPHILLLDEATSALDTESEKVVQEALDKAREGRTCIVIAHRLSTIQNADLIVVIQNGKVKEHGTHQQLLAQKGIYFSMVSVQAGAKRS

## CCCn1c(=O)n(C)c(=O)c2c1ncn2CCCN(C)C
  inhibition at 100 µM: 43%
